Like-named read-outs stand apart in the source and are kept apart here.
How the values were obtained:
Assay in all cases: stopped-flow CO2 hydration assay
Type in all cases: biochemical
hCA II [1] = target: T1, hCA II (Homo sapiens, UniProt P00918)
T1 construct: gene CA2; recombinant, obtained in-house as reported earlier; cytosolic isoform
From the text: stopped-flow CO2 hydration assay on hCA II

hCA IV [2] = target: T2, hCA IV (Homo sapiens, UniProt P22748)
T2 construct: gene CA4; recombinant, obtained in-house as reported earlier
T2 sequence (P22748 19-284): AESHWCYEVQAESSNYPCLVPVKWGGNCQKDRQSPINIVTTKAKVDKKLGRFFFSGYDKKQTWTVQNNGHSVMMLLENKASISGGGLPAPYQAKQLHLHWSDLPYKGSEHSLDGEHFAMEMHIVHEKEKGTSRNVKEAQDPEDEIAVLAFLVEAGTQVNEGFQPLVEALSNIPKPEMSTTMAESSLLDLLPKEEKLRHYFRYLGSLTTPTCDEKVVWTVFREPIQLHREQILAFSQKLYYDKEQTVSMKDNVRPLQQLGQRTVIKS
From the text: stopped-flow CO2 hydration assay on hCA IV

hCA I = target: T3, hCA I (Homo sapiens, UniProt P00915)
T3 construct: gene CA1; recombinant, obtained in-house as reported earlier; cytosolic isoform
T3 sequence (P00915 2-261): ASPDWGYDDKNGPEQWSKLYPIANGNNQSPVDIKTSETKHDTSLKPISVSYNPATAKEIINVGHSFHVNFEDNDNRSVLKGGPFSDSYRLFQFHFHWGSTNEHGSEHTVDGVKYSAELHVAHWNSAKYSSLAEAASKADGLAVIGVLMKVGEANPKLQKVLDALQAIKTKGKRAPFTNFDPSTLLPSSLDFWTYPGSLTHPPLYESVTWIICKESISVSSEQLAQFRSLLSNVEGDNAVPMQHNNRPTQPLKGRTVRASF
From the text: stopped-flow CO2 hydration assay on hCA I

hCA VII [3] = target: T4, hCA VII (Homo sapiens, UniProt P43166)
T4 construct: gene CA7; recombinant, obtained in-house as reported earlier; cytosolic isoform
T4 sequence (P43166 whole entry, canonical isoform): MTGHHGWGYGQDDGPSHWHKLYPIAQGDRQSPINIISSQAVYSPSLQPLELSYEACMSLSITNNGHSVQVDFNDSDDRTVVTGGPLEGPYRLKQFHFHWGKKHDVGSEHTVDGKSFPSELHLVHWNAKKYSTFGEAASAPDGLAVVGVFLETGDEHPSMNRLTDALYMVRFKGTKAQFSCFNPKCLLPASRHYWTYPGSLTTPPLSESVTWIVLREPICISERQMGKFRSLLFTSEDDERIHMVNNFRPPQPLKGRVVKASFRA
From the text: stopped-flow CO2 hydration assay on hCA VII

hCA II [4] = target: T1, hCA II; details: read-out: KI (nM)^a / hCA I
hCA IV [5] = target: T2, hCA IV; details: read-out: KI (nM)^a / hCA I
hCA VII [6] = target: T4, hCA VII; details: read-out: KI (nM)^a / hCA I

SMILES	Ki (hCA II [1])	Ki (hCA IV [2])	Ki (hCA I)	Ki (hCA VII [3])	Ki (hCA II [4])	Ki (hCA IV [5])	Ki (hCA VII [6])
NS(=O)(=O)c1ccc2nc(NC3=NCCN3)sc2c1 [6a, 2-((4,5-Dihydro-1H-imidazol-2-yl)amino)benzo[d]thiazole-6-sulphonamide]	37.6 nM	> 100000 nM	422 nM	56.3 nM	–	–	–
NS(=O)(=O)c1ccc2nc(NC3=NC4CCCCC4N3)sc2c1 (stereo not shown) [6c, 2-((3a,4,5,6,7,7a-hexahydro-1H-benzo[d]imidazol-2-yl)amino)benzo[d]thiazole-6-sulphonamide]	65.6 nM	> 100000 nM	7590 nM	82.5 nM	–	–	–
NS(=O)(=O)c1ccc2nc(Nc3nc4ccccc4[nH]3)sc2c1 [7a, 2-((1H-benzo[d]imidazol-2-yl)amino)benzo[d]thiazole-6-sulphonamide]	84 nM	> 100000 nM	4930 nM	66.9 nM	–	–	–
NS(=O)(=O)c1ccc2nc(Nc3nc4ccc(C(F)(F)F)cc4[nH]3)sc2c1 [7b, 2-((6-(Trifluoromethyl)-1H-benzo[d]imidazol-2-yl)amino)benzo[d]thiazole-6-sulphonamide]	375 nM	> 100000 nM	8100 nM	452 nM	–	–	–
NS(=O)(=O)c1ccc2nc(Nc3nc4ccc(Cl)cc4[nH]3)sc2c1 [7c, 2-((6-Chloro-1H-benzo[d]imidazol-2-yl)amino)benzo[d]thiazole-6-sulphonamide]	578 nM	> 100000 nM	9530 nM	694 nM	–	–	–
O=S(=O)(Nc1nc2ccccc2[nH]1)c1ccc2nc(Nc3nc4ccccc4[nH]3)sc2c1 [9d]	–	–	> 100000 nM	–	> 100000 nM	> 100000 nM	> 100000 nM

Results, then the compound that gave them:

Ki (hCA II [1])	Ki (hCA IV [2])	Ki (hCA I)	Ki (hCA VII [3])	Ki (hCA II [4])	Ki (hCA IV [5])	Ki (hCA VII [6])	SMILES
48.1 nM	> 100000 nM	568 nM	37.4 nM	–	–	–	CC1CN=C(Nc2nc3ccc(S(N)(=O)=O)cc3s2)N1 (stereo not shown) [6b, 2-((5-Methyl-4,5-dihydro-1H-imidazol-2-yl)amino)benzo[d]thiazole-6-sulphonamide]
–	–	> 100000 nM	–	> 100000 nM	> 100000 nM	> 100000 nM	O=S(=O)(NC1=NCCN1)c1ccc2nc(NC3=NCCN3)sc2c1 [9a, N-(4,5-Dihydro-1H-imidazol-2-yl)-2-((4,5-dihydro-1H-imidazol-2-yl)amino)benzo[d]thiazole-6-sulphonamide]
–	–	> 100000 nM	–	> 100000 nM	> 100000 nM	> 100000 nM	CC1CN=C(Nc2nc3ccc(S(=O)(=O)NC4=NCC(C)N4)cc3s2)N1 (stereo not shown) [9b]
–	–	> 100000 nM	–	> 100000 nM	> 100000 nM	> 100000 nM	O=S(=O)(NC1=NC2CCCCC2N1)c1ccc2nc(NC3=NC4CCCCC4N3)sc2c1 (stereo not shown) [9c, N-(3a,4,5,6,7,7a-hexahydro-1H-benzo[d]imidazol-2-yl)-2-((3a,4,5,6,7,7a-hexahydro-1H-benzo[d]imidazol-2-yl)amino)benzo[d]thiazole-6-sulphonamide]

Reference: publication PMC9930818, “2-((1H-Benzo[d]imidazol-2-yl)amino)benzo[d]thiazole-6-sulphonamides: a class of carbonic anhydrase II and VII-selective inhibitors” (Journal of Enzyme Inhibition and Medicinal Chemistry, 2023)
